Test results taken from US10336762B2 (priority 2017, dated 2019).
Read-outs that look alike come from different tables or passages of the source.

Tests used:
IRAK4 enzyme = IRAK4 enzyme (Homo sapiens (Human), UniProt Q9NWZ3); assay: biochemical; type: biochemical
TNFα = assay: cells; type: cell-based, human; settings: read-out: EC50 TNF
[1] = IRAK4 enzyme, TR-FRET (HTRF), 500 μM ATP
[2] = Homo sapiens, Monocyte, LPS-stimulated human monocytes, TNFα content
[3] = IRAK4 enzyme, TR-FRET, 500 μM ATP
[4] = Homo sapiens, Monocyte, LPS-stimulated human monocytes, TNFα by TR-FRET

Sequence of IRAK4 enzyme (Q9NWZ3 whole entry): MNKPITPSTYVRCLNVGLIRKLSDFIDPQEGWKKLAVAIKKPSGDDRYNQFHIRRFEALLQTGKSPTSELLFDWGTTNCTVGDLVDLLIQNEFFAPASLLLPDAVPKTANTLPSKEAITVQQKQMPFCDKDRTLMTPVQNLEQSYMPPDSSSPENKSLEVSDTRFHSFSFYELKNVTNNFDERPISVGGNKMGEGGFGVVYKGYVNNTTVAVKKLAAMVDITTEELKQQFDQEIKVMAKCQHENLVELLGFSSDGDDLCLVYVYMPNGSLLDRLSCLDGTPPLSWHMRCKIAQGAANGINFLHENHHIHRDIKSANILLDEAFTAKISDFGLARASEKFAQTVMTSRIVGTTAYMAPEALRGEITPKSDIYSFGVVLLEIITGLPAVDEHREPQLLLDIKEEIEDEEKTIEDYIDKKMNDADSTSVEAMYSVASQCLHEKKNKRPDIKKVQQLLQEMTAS

Row | SMILES | EC50 (TNFα; [2]) [µM] | IC50 (IRAK4 enzyme; [3]) [µM] | EC50 (TNFα; [4]) [µM] | also measured
1 | CN(C)C(=O)C12CCC(Nc3cc(-c4ccc5cc(C#N)cnn45)ncc3C(=O)NC[C@@H](F)C(C)(C)O)(CC1)CC2 [Example 415, (R)-6-(3-cyanopyrrolo[1,2-b]pyridazin-7-yl)-4-((4-(dimethylcarbamoyl)bicyclo[2.2.2]octan-1-yl)amino)-N-(2-fluoro-3-hydroxy-3-methyl-butyl)nicotinamide] | 0.014 |  |  | IC50 (IRAK4 enzyme; [1]): 0.001 µM
2 | CC(C)(O)[C@H](F)CNC(=O)c1cnc(-c2ccc3cc(C#N)cnn23)cc1NC1CC2(CNC2)C1 [Example 895, (R)-4-(2-azaspiro[3.3]heptan-6-ylamino)-6-(3-cyanopyrrolo[1,2-b]pyridazin-7-yl)-N-(2-fluoro-3-hydroxy-3-methyl-butyl)nicotinamide] |  | 0.002 | 1 | 
3 | CN1CCC(Nc2cc(-c3ccc4cc(C#N)cnn34)ncc2C(=O)NC[C@@H](F)C(C)(C)O)CC1=O (stereo partly drawn) [Example 155, 6-(3-cyanopyrrolo[1,2-b]pyridazin-7-yl)-N-((R)-2-fluoro-3-hydroxy-3-methylbutyl)-4-((1-methyl-2-oxopiperidin-4-yl)amino) nicotinamide] | 0.15 | 0.001 |  | 
4 | CC(C)Nc1cc(-c2ccc3cc(C#N)cnn23)ncc1C(=O)NC1CCC(NC(=O)C2(C)COC2)CC1 (centres unmarked) [Example 134, 6-(3-cyanopyrrolo[1,2-b]pyridazin-7-yl)-4-(isopropylamino)-N-((1r,4r)-4-(3-methyloxetane-3-carboxamido)cyclohexyl)nicotinamide] | 0.101 | 0.001 |  | 
5 | CC(C)(O)[C@H](F)CNC(=O)c1cnc(-c2ccc3cc(C#N)cnn23)cc1Nc1cnn(C2CNCC2(F)F)c1 (single isomer, unassigned) [Example 868] |  | < 0.001 |  | EC50 (TNFα; LPS-stimulated human monocytes, TNFα by TR-FRET): 0.053 µM
6 | N#Cc1cnn2c(-c3cc(NC45CCC(O)(CC4)CC5)c(C(=O)NC[C@@H](F)C(=O)N4CC(F)(F)C4)cn3)ccc2c1 [Example 947, (R)-6-(3-cyanopyrrolo[1,2-b]pyridazin-7-yl)-N-(3-(3,3-difluoroazetidin-1-yl)-2-fluoro-3-oxopropyl)-4-((4-hydroxybicyclo[2.2.2]octan-1-yl)amino) nicotinamide] |  | < 0.001 | 0.207 | 
7 | CC(C)(C)OC(=O)N1CC2(CC(Nc3cc(-c4ccc5cc(C#N)cnn45)ncc3C(=O)NC[C@@H](F)C(C)(C)O)C2)C1 [Example 448, (R)-tert-butyl 6-((2-(3-cyanopyrrolo[1,2-b]pyridazin-7-yl)-5-((2-fluoro-3-hydroxy-3-methylbutyl)carbamoyl)pyridin-4-yl)amino)-2-azaspiro[3.3]heptane-2-carboxylate] | 2.04 |  |  | IC50 (IRAK4 enzyme; [1]): 0.032 µM
8 | CC(C)(O)[C@H](F)CNC(=O)c1cnc(-c2ccc3cc(C#N)cnn23)cc1N[C@H]1CC[C@H](NCC(F)(F)F)CC1 [Example 289, 6-(3-cyanopyrrolo[1,2-b]pyridazin-7-yl)-N-((R)-2-fluoro-3-hydroxy-3-methylbutyl)-4-(((1r,4R)-4-((2,2,2-trifluoroethyl)amino)cyclohexyl)amino)nicotinamide] |  |  |  | IC50 (IRAK4 enzyme): 0.001 µM; EC50 (TNFα; Homo sapiens, Monocyte): 0.066 µM
9 | CC(C)Nc1cc(-c2ccc3cc(C#N)cnn23)ncc1C(=O)N[C@@H]1CCC[C@@H](O)C1 [Example 192, 6-(3-cyanopyrrolo[1,2-b]pyridazin-7-yl)-N-((1R,3R)-3-hydroxycyclohexyl)-4-(isopropylamino) nicotinamide] | 0.157 | 0.005 |  | 
10 | CC(C)(O)[C@H](F)CNC(=O)c1cnc(-c2ccc3cc(C#N)cnn23)cc1-c1ccc2cc(C#N)cnn12 [Example 693, (R)-4,6-bis(3-cyano-pyrrolo[1,2-b]pyridazin-7-yl)-N-(2-fluoro-3-hydroxy-3-methylbutyl)nicotinamide] | 0.821 |  |  | IC50 (IRAK4 enzyme; [1]): 0.035 µM
11 | Cn1ccc(CNC(=O)c2cnc(-c3ccc4cc(C#N)cnn34)cc2NC23CCC(O)(CC2)CC3)n1 [Example 935, 6-(3-cyanopyrrolo[1,2-b]pyridazin-7-yl)-4-((4-hydroxybicyclo[2.2.2]octan-1-yl)amino)-N-((1-methyl-1H-pyrazol-3-yl)methyl)nicotinamide] |  | 0.002 | 0.153 | 
12 | CC(C)(O)[C@H](F)CNC(=O)c1cnc(-c2ccc3cc(C#N)cnn23)cc1NC12CCC(N3CCC3=O)(CC1)CC2 [Example 405, 6-(3-cyanopyrrolo[1,2-b]pyridazin-7-yl)-N-((R)-2-fluoro-3-hydroxy-3-methylbutyl)-4-((4-(2-oxoazetidin-1-yl)bicyclo[2.2.2]octan-1-yl)amino)nicotinamide] | 0.012 |  |  | IC50 (IRAK4 enzyme; [1]): 0.001 µM
13 | CC(C)(O)C(=O)CNC(=O)c1cnc(-c2ccc3cc(C#N)cnn23)cc1NC12CCC(O)(CC1)CC2 [Example 810, 6-(3-cyanopyrrolo[1,2-b]pyridazin-7-yl)-N-(3-hydroxy-3-methyl-2-oxobutyl)-4-((4-hydroxy-bicyclo[2.2.2]octan-1-yl)amino)nicotinamide] |  | < 0.001 | 0.009 | 
14 | CC(C)(O)[C@H](F)CNC(=O)c1cnc(-c2ccc3cc(C#N)cnn23)cc1NC1CN(S(C)(=O)=O)C1 [Example 98, (R)-6-(3-cyanopyrrolo[1,2-b]pyridazin-7-yl)-N-(2-fluoro-3-hydroxy-3-methylbutyl)-4-((1-(methylsulfonyl)azetidin-3-yl)amino)nicotinamide] | 0.358 | 0.002 |  | 
15 | CCCC(=O)NC[C@H]1C[C@H](Nc2cc(-c3ccc4cc(C#N)cnn34)ncc2C(=O)NC[C@@H](F)C(C)(C)O)C1 [Example 825, 4-(((1r,3R)-3-(butyramidomethyl)cyclo-butyl)amino)-6-(3-cyano-pyrrolo[1,2-b]pyridazin-7-yl)-N-((R)-2-fluoro-3-hydroxy-3-methylbutyl) nicotinamide] |  | < 0.001 | 0.048 | 
16 | CCCc1nccc(Nc2cc(-c3ccc4cc(C#N)cnn34)ncc2C(=O)NC[C@@H](F)C(C)(C)O)n1 [Example 843, (R)-6-(3-cyanopyrrolo[1,2-b]pyridazin-7-yl)-N-(2-fluoro-3-hydroxy-3-methylbutyl)-4-((2-propyl-pyrimidin-4-yl)amino)nicotinamide] |  | 0.001 | 0.137 | 
17 | CC(C)(O)[C@H](F)CNC(=O)c1cnc(-c2ccc3cc(C#N)cnn23)cc1N[C@H]1CC[C@H](NC(=O)C(F)(F)F)CC1 [Example 313, 6-(3-cyanopyrrolo[1,2-b]pyridazin-7-yl)-N-((R)-2-fluoro-3-hydroxy-3-methylbutyl)-4-(((1r,4R)-4-(2,2,2-trifluoroacetamido)cyclohexyl)amino) nicotinamide] | 0.037 | 0.001 |  | 
18 | CC(C)Nc1cc(-c2ccc3cc(C#N)cnn23)ncc1C(=O)NC1CCC(S(C)(=O)=O)CC1 (centres unmarked) [Example 521, 6-(3-cyanopyrrolo[1,2-b]pyridazin-7-yl)-4-(iso-propylamino)-N-(4-(methylsulfonyl)cyclohexyl) nicotinamide] | 0.717 |  |  | IC50 (IRAK4 enzyme; [1]): 0.062 µM
19 | COc1cc(Nc2cc(-c3ccc4cc(C#N)cnn34)ncc2C(=O)NC[C@@H](F)C(C)(C)O)cnc1OC [Example 853, (R)-6-(3-cyanopyrrolo[1,2-b]pyridazin-7-yl)-4-((5,6-dimethoxypyridin-3-yl)amino)-N-(2-fluoro-3-hydroxy-3-methylbutyl) nicotinamide] |  | 0.014 | 0.127 | 
